Laboratory results from patent US4699914A, “Imidazole group containing 2(1H)-pyridones and method for treating heart insufficiencies in humans” (A. Nattermann & Cie GmbH, priority 1984, dated 1987).

Assays:
Anaesthetized dog = experiment: Evaluation of the cardiotonic activity in vivo, anaesthetized dog; parameters: species or system dog (adult mongrel dogs of either sex); Blood Pressure: unit not given here; details: intravenous
Procedure: The effects of increasing doses of the drugs were measured upon intravenous administration to anaesthetized dogs. As parameters myocardial contractility, heart rate and arterial blood pressure were registered.
Adult mongrel dogs of either sex received a premedication of morphinhydrochloride (1.0 mg/kg s.c.). Thirty minutes later anaesthesia was induced by chloralose/urethane. The animals were heparinised with 500 I.U. heparin/kg (i.v.) as an initial dosage followed by doses of 250 I.U./kg given every 4 hours.
The trachea was intubated but the animals were allowed to breathe spontaneously. The test solutions were injected via a cannula in the vena cephalica antebrachii dextra. Arterial blood pressure was measured by a cannula in the femoral artery. In order to enable the registration of the myocardial contractility a Millar catheter tip pressure transducer was inserted into the left ventricle by way of the left carotid artery. Arterial blood pressure and left ventricular blood pressure were recorded continuously. Heart rate is triggered from the peak of the blood pressure signal.
From the left ventricular blood pressure the first derivative was calculated by a differentiator amplifier to give left ventricular dp/dt which was recorded as well. The compounds were solved in tetrahydrofurfurylalcohol polyethylene glycolether when necessary with additional heating.
Each dose of the test compounds was administered in a volume of 0.1 ml/kg, the duration of the injection was 1 minute.
The results with the tested compound representing the subject of invention 3,6-Dimethyl-5-[4-(1-imidazolyl)-2-thienyl]-2(1H)-pyridone-hydrochloride=Ain comparison with reference substance 4,5-Dihydro-6-[4-(1-imidazolyl)-phenyl]-3(2H)-pyridazinone ((CI 914, Drugs of the Future 9 (1984), 256)=B are given in the table 1.

human platelets = experiment: Inhibition of the collagen-induced platelets aggregation in vitro (method of Born); format: cell-based; details: read-out: IC50 (concentration which causes an aggregation inhibition of 50%), platelet rich human plasma
Procedure: The inhibition of the collagen-induced platelets aggregation in vitro was carried out by using the method of Born (Nature, 194, 927-929 (1962)) in using a platelet rich human plasma with the substances of the present invention 3,6-dimethyl-5-[-5-(1-imidazolyl)-2-thienyl]-2(1H)-pyridone-hydrochloride=C, 3,6-dimethyl-5-[4-(1-imidazolyl)phenyl]-2(1H)-pyridone-hydrochloride=D, 5-[4-(1-imidazolyl)-2-thienyl]-6-methyl-2(1H)-pyridone-hydrochloride=E in comparison with the reference substance acetylsalicyclic acid=F.

Water solubility = format: physicochemical; details: hydrochloride, in words

SMILES	IC50 (human platelets)	Blood Pressure (Anaesthetized dog; 0.01 mg/kg)	Contractility (Anaesthetized dog; 0.01 mg/kg)	Heart Rate (Anaesthetized dog; 0.01 mg/kg)	Blood Pressure (Anaesthetized dog; 0.0316 mg/kg)	Contractility (Anaesthetized dog; 0.0316 mg/kg)	Heart Rate (Anaesthetized dog; 0.0316 mg/kg)	Blood Pressure (Anaesthetized dog; 0.1 mg/kg)	Contractility (Anaesthetized dog; 0.1 mg/kg)	Heart Rate (Anaesthetized dog; 0.1 mg/kg)	other results
Cc1[nH]c(=O)c(C)cc1-c1cc(-n2ccnc2)cs1.Cl [A, 3,6-Dimethyl-5-[4-(1-imidazolyl)-2-thienyl]-2(1H)-pyridone-hydrochloride]		-0.2	+32.4	+5.9	-4.1	+83.3	+20.0	-17.4	+185.5	+32.1	
O=C1CCC(c2ccc(-n3ccnc3)cc2)=NN1 [B, 4,5-Dihydro-6-[4-(1-imidazolyl)-phenyl]-3(2H)-pyridazinone, reference compound]		-1.3	+8.7	+3.6	-0.7	+25.5	+18.9	-10.4	+64.8	+15.4	
Cc1[nH]c(=O)c(C)cc1-c1ccc(-n2ccnc2)s1 [C]	0.44 µM										
CC1=C(c2ccc(-n3ccnc3)cc2)CCC(=O)N1.Cl [Example 22, 3,4-dihydro-5-[4-(1-imidazolyl)-phenyl]-6-methyl-2(1H)-pyridone-hydrochloride]											water solubility (Water solubility): water soluble

Second part, led by results:

IC50 (human platelets)	SMILES	Blood Pressure (Anaesthetized dog; 0.01 mg/kg)	Contractility (Anaesthetized dog; 0.01 mg/kg)	Heart Rate (Anaesthetized dog; 0.01 mg/kg)	Blood Pressure (Anaesthetized dog; 0.0316 mg/kg)	Contractility (Anaesthetized dog; 0.0316 mg/kg)	Heart Rate (Anaesthetized dog; 0.0316 mg/kg)	Blood Pressure (Anaesthetized dog; 0.1 mg/kg)	Contractility (Anaesthetized dog; 0.1 mg/kg)	Heart Rate (Anaesthetized dog; 0.1 mg/kg)	other results
0.37 µM	Cc1[nH]c(=O)c(C)cc1-c1ccc(-n2ccnc2)cc1 [D]										
0.54 µM	Cc1[nH]c(=O)ccc1-c1cc(-n2ccnc2)cs1 [E]										
